Assay results published in patent publication US7910723B2, “IG20 splice variants therapeutics for cancer” (The Board of Trustees of the University of Illinois, priority 2006, dated 2011).

Experiments:
Type in all cases: cell-based
[1] = system: MADD; test: Phosphorylation of exogenous wtMADD in HEK293 cells (anti-phospho antibodies); details: HEK293 transfected with wtMADD; LY 10 μM 1 h, IGF-1 150 ng/ml 20 minutes
Method: (A) In vitro phosphorylation of rMADD by Akt. GST-wtMADD or -MADD mutants were expressed in bacteria, purified, and then incubated with rAkt and γ[^32P] ATP. After 1 h incubation at 30° C., the products were resolved on SDS-PAGE and ^32P-labeled proteins were visualized by autoradiography. (B) MADD is labeled by [^32P]orthophosphate in vivo. HEK293 cells were transfected with wtMADD or MADD mutant constructs. Twenty-four hours after transfection cells were incubated with 0.3 mCi/ml [32P]orthophosphate for 6 h. MADD was immunoprecipitated with an anti-YFP antibody. The precipitated MADD was separated by SDS-PAGE, transferred to a nitrocellulose membrane, and subjected to autoradiography. Loaded MADD was visualized by staining the same membrane with an anti-YFP antibody. (C) HEK293 cells were transfected with cDNAs for wtMADD or MADD mutants and. 36 h later the cells were harvested for immunoblotting using the anti-phospho-S-70, -T-173 or -T-1041 antibodies. An anti-YFP antibody was used to detect exogenous MADD. (D) HEK293 cells were transfected with wtMADD and 24 hours later cells were serum starved for 20 h. Subsequently, they were treated with LY (10 μM) for 1 h and/or IGF-1 (150 ng/ml) for 20 minutes. The cell lysates were immunoblotted and probed with anti phospho-specific antibodies or an anti-YFP antibody. […]

[2] = system: MADD; test: Phosphorylation of endogenous MADD in HeLa cells (anti-phospho antibodies); details: LY 10 μM 1 h, IGF-1 150 ng/ml 20 minutes
[3] = system: DR4; test: Association of exogenous MADD with DR4 in HEK293 cells (immunoprecipitation)
Method: (A) Phosphorylation status of MADD could influence its binding to DR4. HEK293 cells were transfected with wtMADD or MADD mutants. 36 h after transfection, the cells were harvested for immunoprecipitation using an anti-DR4 antibody followed by immunoblotting using an anti-YFP antibody to detect exogenous MADD. The membrane was reprobed with an anti-DR4 antibody to show the protein loading. (B) PI3K can influence the association of exogenous MADD with DR4. HEK293 cells were transfected with wtMADD. Twenty four hours after transfection, the cells were serum starved for 20 h. Further, they were treated with LY (10 μM) for 1 h, IGF-1 (150 ng/ml) for 20 minutes. Immunoprecipitation using an anti-DR4 antibody was followed by immunoblotting using anti-YFP or anti-DR4 antibody. (C) Akt can influence exogenous MADD association with DR4. HEK293 cells were co-transfected with wtMADD along with DN-Akt or the empty vector pcDNA3.1 (pcDNA). Thirty six hours after transfection, the cells were harvested for immunoprecipitation using anti-DR4 antibody followed by immunoblotting with an anti-YFP or an anti-DR4 antibody. (D) PI3K can influence the association of endogenous MADD with DR4. HeLa cells were serum starved for 20 h, then treated with LY (10 μM) for 1 h, IGF-1 (150 ng/ml) for 20 minutes. Immunoprecipitation using an anti-DR4 antibody was followed by immunoblotting with an anti-MADD or an anti-DR4 antibody. (E) Akt can influence the association of endogenous MADD with DR4. HeLa cells were transfected with DN-Akt or pcDNA. Thirty six hours after transfection, the cells were collected for immunoprecipitation using an anti-DR4 antibody followed by immunoblotting with an anti-MADD antibody.
MADD can bind to DR4 and thereby block the activation of the extrinsic apoptotic pathway. […] Stimulation of PI3K by IGF-1 increased, while inhibition by LY reduced, the association between wtMADD and DR4 (FIG. 15B). […] This interaction was reduced in the presence of LY (FIG. 15D) or DN-Akt (FIG. 15E).
Immunoprecipitation. Immunoprecipitations were performed using standard procedures. The samples were precleared with 10% (vol/vol) Protein-A agarose (Roche) for 1 h on a rocking platform. Specific antibodies were added and rocked for 1 h. Immunoprecipitates were captured by incubating with 10% (vol/vol) Protein-A agarose for an hour. The agarose beads were spun down and washed three times with NET/NP40 buffer (150 mM NaCl, 2 mM EDTA, 50 mM Tris-HCl pH 7.5, 0.1% NP-40). The antigens were released and denatured by adding SDS sample buffer. Immunoblots were prepared and analysed as described above.

[4] = system: Akt and MADD; test: TRAIL treatment of HeLa cells: Akt and MADD phosphorylation, caspase-8 activation (immunoblot); details: TRAIL 50 ng/ml
Method: (A) TRAIL treatment reduces the levels of Akt and MADD phosphorylation, and leads to caspase-8 activation. Hela cells were treated with TRAIL (50 ng/ml). The phosphorylation level of Akt was analyzed by immunoblotting using an anti-phospho Akt antibody. The phosphorylation levels of MADD was analyzed by immunoblotting using the anti-phospho T1041 antibody. Caspase-8 activation was analyzed by immunoblotting using an anti-caspase-8 antibody. (B) TRAIL induces FADD-procaspase-8 binding depending upon MADD phosphorylation status. HeLa cells were transfected either with caAkt or pcDNA3.1 empty vector. Cells were treated with TRAIL for 1 h. The MADD phosphorylation was analyzed by immunoblotting using the anti-phospho T1041 antibody. The association of procaspase-8 and FADD was analyzed by immunoprecipitation using an anti-FADD antibody followed by immunoblotting using an anti-caspase-8 antibody. […] 24 h later cells were treated with TRAIL (50 ng/ml) for 4 hours and caspase-8 activity was analyzed. *p<0.05 vs TRAIL+caAkt. […] The localizations of phosphorylated and nonphosphorylated forms of MADD in the membrane and cytosolic fractions were analyzed by immunoblotting using the anti-phospho T1041 antibody. […] The Bax distribution in cytoplasm and HM was analyzed by immunoblotting using an anti-Bax antibody. […] The distributions of Bax in cytoplasm and HM were analyzed as described for (E). […]

insulin-like growth factor-1 [IGF-1]
S70, T173 and T1041 phosphorylation levels of MADD [1]: increased | Phosphorylation of endogenous MADD [2]: phosphorylated at all three sites | Association of exogenous MADD with DR4 [3]: increased

tumor necrosis factor-related apoptosis-inducing ligand [TRAIL]
Caspase-8 activation [4]: concomitant activation of caspase-8 | Levels of phosphorylation of Akt and MADD [4]: reduced
